From patent EP1218402B1 (Dabur Research Foundation, priority 1999, dated 2001)

Key:
DU145 = assay: Cytotoxicity assay for tumor cells, prostate DU145; format: cell-based; settings: concentration causing 50% cytotoxicity
Description: (§1) The cytotoxicity assays for tumor cells have been described in detail in our application No. 09/040,856 filed in US on March 18, 1998. […] Table - I

HT-29 = assay: Cytotoxicity assay for tumor cells, colon HT-29; format: cell-based; settings: concentration causing 50% cytotoxicity
Description: as §1

ECV304 [1] = assay: MTT assay, inhibition of proliferation of ECV304 endothelial cells (72 hours); format: cell-based, human; settings: concentration causing 50% cytotoxicity
Method: 30µl of ECV304 cell suspension (50 x 10^4 cells/ml in RPMI 1640 containing 10% FBS) followed by 150µl of medium was added to the wells of a 96-well tissue culture plate (Nunc, Denmark) and incubated (37°C, 5% CO2) overnight. […] Each concentration was plated in triplicates. 20µl of medium alone was added to control wells. After 72 hours of incubation an MTT assay (Mosmann, 1983) was performed and percentage inhibition in proliferation of treated cells was calculated with respect to control cells.

PA-1 = assay: Cytotoxicity assay for tumor cells, ovary PA-1; format: cell-based; settings: concentration causing 50% cytotoxicity
Description: as §1

L132 = assay: Cytotoxicity assay for tumor cells, lung L132; format: cell-based; settings: concentration causing 50% cytotoxicity
Description: as §1

ECV304 [2] = assay: Tube-like-structure (TLS) formation of ECV304 cells on Matrigel; format: cell-based, human; settings: 24 - 48 hours, mean of five fields
Method: Matrigel (70 µl) was placed into each well of a 96-well culture plate at 4°C and was allowed to polymerize by incubation at 37°C for 30 min. ECV304 (1 x 10^4) cells were seeded on the Matrigel in 200 µl DMEM containing 10% FBS. […] Five different phase-contrast microscopic fields (4X) were viewed and total tube area of the tube-like-structures (TLS) measured using Video Pro 32 Image Analysis system. Percent reduction in total tube area was given as the mean of the data from five fields. Percent inhibition of TLS was calculated with reference to Controls(no drug). Table - III

Structure (SMILES)	Prostate DU145 (ED50) (DU145) [µg/mL]	Colon HT-29 (ED50) (HT-29) [µg/mL]	Endothelial ECV304 (ED50) (ECV304 [1]) [µg/mL]	Ovary PA-1 (ED50) (PA-1) [µg/mL]	Lung L132 (ED50) (L132) [µg/mL]	% reduction in total tube area at concentration 0.5 µg/ml (ECV304 [2]) [%]	% reduction in total tube area at concentration 2 µg/ml (ECV304 [2]) [%]	% reduction in total tube area at concentration 4 µg/ml (ECV304 [2]) [%]
C=C(C)C1CCC2(C(=O)O)CCC3(C)C(CCC4C5(C)CCC(=NNc6ccccc6)C(C)(C)C5CCC43C)C12 (stereo not shown) [MJ353-RS]	6.5	> 10	2.4	5	4.5	–	–	–
COc1ccc(NNC2CCC3(C)C(CCC4(C)C3CCC3C5C(C(C)C)CCC5(C(=O)O)CCC34C)C2(C)C)cc1 (stereo not shown) [MJ912-RS]	8.5	0.35	0.4	–	> 4	–	–	–
CC(C)C1CCC2(C(=O)O)CCC3(C)C(CCC4C5(C)CCC(OC(=O)c6cc(F)cc(F)c6)C(C)(C)C5CCC43C)C12 (stereo not shown) [MJ935-RS]	3.2	> 10	0.7	–	1.2	–	–	–
CC(C)C1CCC2(C(=O)O)CCC3(C)C(CCC4C5(C)CCC(OC(=O)c6ccc(F)cc6F)C(C)(C)C5CCC43C)C12 (stereo not shown) [MJ937-RS]	2.5	1.7	0.7	1.6	1.1	16.7	21	21.7
C=C(C)C1CCC2(C(=O)O)CCC3(C)C(CCC4C5(C)CCC(OC(=O)c6cccc(C(F)(F)F)c6)C(C)(C)C5CCC43C)C12 (stereo not shown) [MJ939-RS]	> 10	> 10	0.9	> 4	2.7	–	–	–
CC(C)C1CCC2(C(=O)O)CCC3(C)C(CCC4C5(C)CCC(OC(=O)c6ccccc6C(F)(F)F)C(C)(C)C5CCC43C)C12 (stereo not shown) [MJ943-RS]	> 4	> 10	2.6	> 4	4	–	–	–
CC(C)C1CCC2(C(=O)O)CCC3(C)C(CCC4C5(C)CCC(N=Cc6ccc(F)c(F)c6)C(C)(C)C5CCC43C)C12 (stereo not shown) [MJ998-RS]	2.2	4	0.35	1.3	2.5	21.1	13.4	33.4
CC(C)C1CCC2(C(=O)O)CCC3(C)C(CCC4C5(C)CCC(N=Cc6ccc(F)cc6F)C(C)(C)C5CCC43C)C12 (stereo not shown) [MJ1065-RS]	2.5	4.9	2.4	1.3	3.4	23.4	16.7	46.7
CC(C)C1CCC2(C(=O)O)CCC3(C)C(CCC4C5(C)CCC(=NOCc6ccc([N+](=O)[O-])cc6)C(C)(C)C5CCC43C)C12 (stereo not shown) [MJ1098-RS]	1.5	2.6	0.6	1.6	1.3	15	7.5	10
C=C(C)C1CCC2(C(=O)O)CCC3(C)C(CCC4C5(C)CCC(OC(=O)c6ccc(CCCCC)cc6)C(C)(C)C5CCC43C)C12 (stereo not shown) [MJ1104-RS]	2	3.5	1.9	> 4	5.9	–	–	–
C=C(C)C1CCC2(C(=O)O)CCC3(C)C(CCC4C5(C)CCC(OC(=O)Cc6cc(OC)ccc6OC)C(C)(C)C5CCC43C)C12 (stereo not shown) [MJ1108-RS]	1	> 10	1.8	–	4.6	–	–	–
